The source of these data is patent publication US10444149B2, “Fluorescent compounds as sensing agents” (OHIO NORTHERN UNIVERSITY, priority 2016, dated 2019).

Molecules are shown by their SMILES. Marks after values point to notes of the source that are not given here.

A short description of the data set: Peak absorption wavelength, peak emission wavelength and fluorescent quantum yield. Type of data set: physicochemical. From the text:
Table 2 provides a peak absorption wavelength (λabs maximum), peak emission wavelength (λem maximum), a fluorescent quantum yield (ΦF), and a synthesis yield for the various compounds. The synthesis yield is based on the synthetic pathway illustrated in FIG. 1.

As to `COC(=O)C(C)(C)C1Oc2ccccc2C(=O)/C1=C\O` (stereo not drawn) [Compound 5, (Z)-methyl 2-(3-(hydroxymethylene)-4-oxochroman-2-yl)-2-methylpropanoate], where the note is “solvent dichloromethane”, the ΦF is 6* %, the λabs maximum came to 362 nm and the λem maximum is recorded as 446 nm.

On to `COC(=O)C(C)(C)C1Oc2ccc(F)cc2C(=O)/C1=C\O` (stereo not drawn) [Compound 6, (Z)-methyl 2-(6-fluoro-3-(hydroxymethylene)-4-oxochroman-2-yl)-2-methylpropanoate], for which, for the setting “solvent dichloromethane”, the ΦF is on record as 2* %, the λabs maximum stood at 364 nm and the λem maximum is 486 nm.

Take `COC(=O)C(C)(C)C1Oc2c(Br)cc(Br)cc2C(=O)/C1=C\O` (stereo not drawn) [Compound 14, (Z)-methyl 2-(6,8-dibromo-3-(hydroxymethylene)-4-oxochroman-2-yl)-2-methylpropanoate]: under “solvent dichloromethane”, the ΦF is recorded as 3* %, the λabs maximum was determined as 371 nm and the λem maximum is 451 nm.

Consider `COC(=O)C(C)(C)C1Oc2ccccc2C(=O)/C1=C\NS(=O)(=O)c1ccc(C)cc1` (stereo not drawn) [Compound 15, (Z)-methyl 2-methyl-2-(3-((4-methylphenylsulfonamido)methy-lene)-4-oxochroman-2-yl)propanoate], for which, for the setting “solvent dichloromethane”, the ΦF is given as 37* %, the λabs maximum is 358 nm and the λem maximum stood at 479 nm.

Regarding `COC(=O)C(C)(C)C1Oc2ccc(F)cc2C(=O)/C1=C\NS(=O)(=O)c1ccc(C)cc1` (stereo not drawn) [Compound 16, (Z)-methyl 2-(6-fluoro-3-((4-methylphenylsulfonamido)methy-lene)-4-oxochroman-2-yl)-2-methylpropanoate], under “solvent dichloromethane”, the ΦF is recorded as 33* %, the λabs maximum is 367 nm and the λem maximum is 492 nm.

Regarding `COC(=O)C(C)(C)C1Oc2ccc(Cl)cc2C(=O)/C1=C\NS(=O)(=O)c1ccc(C)cc1` (stereo not drawn) [Compound 17, (Z)-methyl 2-(6-chloro-3-((4-methylphenylsulfonamido)methy-lene)-4-oxochroman-2-yl)-2-methylpropanoate], under “solvent dichloromethane”, the ΦF was 39* %, the λabs maximum amounted to 367 nm and the λem maximum is listed as 483 nm.

Take `COC(=O)C(C)(C)C1Oc2ccc(Br)cc2C(=O)/C1=C\NS(=O)(=O)c1ccc(C)cc1` (stereo not drawn) [Compound 18, (Z)-methyl 2-(6-bromo-3-((4-methylphenylsulfonamido)methy-lene)-4-oxochroman-2-yl)-2-methylpropanoate]: where the note is “solvent dichloromethane”, the ΦF is given as 34* %, the λabs maximum was 343 nm and the λem maximum was 483 nm.

`COC(=O)C(C)(C)C1Oc2ccc(C)cc2C(=O)/C1=C\NS(=O)(=O)c1ccc(C)cc1` (stereo not drawn) [Compound 19, (Z)-methyl 2-methyl-2-(6-methyl-3-((4-methylphenylsulfonamido)methy-lene)-4-oxochroman-2-yl)propanoate]: the ΦF is 8** % (solvent acetonitrile), 27*** % (solvent cyclohexane) and 70* % (solvent dichloromethane). The λabs maximum is, setting by setting: (solvent acetonitrile) 380 nm; (solvent cyclohexane) 364 nm; (solvent dichloromethane) 367 nm. Moreover, the λem maximum was 468 nm (solvent acetonitrile), 479 nm (solvent cyclohexane) and 492 nm (solvent dichloromethane).

For `COC(=O)C(C)(C)C1Oc2ccc(C(C)C)cc2C(=O)/C1=C\NS(=O)(=O)c1ccc(C)cc1` (stereo not drawn) [Compound 21, (Z)methyl-2-(6-isopropyl-3-(((4-methylphenyl)sulfonamido)methy-lene)-4-oxochroman-2-yl)-2-methylpropanoate], for the setting “solvent dichloromethane”, the ΦF is 71* %, the λabs maximum was 368 nm and the λem maximum turned out to be 490 nm.

Turning to `COC(=O)C(C)(C)C1Oc2ccc(OC)cc2C(=O)/C1=C\NS(=O)(=O)c1ccc(C)cc1` (stereo not drawn) [Compound 22, (Z)-methyl-2-(6-methoxy-3-(((4-methylphenyl)sulfonamido)methy-lene)-4-oxochroman-2-yl)-2-methylpropanoate], where the note is “solvent dichloromethane”, the ΦF was 66* %, the λabs maximum was determined as 390 nm and the λem maximum worked out at 529 nm.

Regarding `COC(=O)C(C)(C)C1Oc2ccccc2C(=O)/C1=C\NS(=O)(=O)c1ccc(OC)cc1` (stereo not drawn) [Compound 23, (Z)methyl-2-(3-(((4-methoxyphenyl)sulfonamido)methy-lene)-4-oxochroman-2-yl)-2-methylpropanoate], for the setting “solvent dichloromethane”, the ΦF is given as 38* %, the λabs maximum stood at 358 nm and the λem maximum came out at 479 nm.

Take `COC(=O)C(C)(C)C1Oc2ccc(C)cc2C(=O)/C1=C\NS(=O)(=O)c1ccc(OC)cc1` (stereo not drawn) [Compound 24, (Z)methyl-2-(3-(((4-methoxyphenyl)sulfonamido)methy-lene)-6-methyl-4-oxochroman-2-yl)-2-methylpropanoate]: where the note is “solvent dichloromethane”, the ΦF was 72* %, the λabs maximum is 367 nm and the λem maximum is 492 nm.

For `COC(=O)CC1Oc2ccc(OC)cc2C(=O)/C1=C\NS(=O)(=O)c1ccc(OC)cc1` (stereo not drawn) [Compound 26, (Z)-methyl-2-(6-methoxy-3-(((4-methoxyphenyl)sulfonamido)methy-lene)-4-oxochroman-2-yl)acetate], where the note is “solvent dichloromethane”, the ΦF is 67* %, the λabs maximum came out at 386 nm and the λem maximum is 529 nm.
